Bridge positions count the residues as written; N and C are the ends. Ends that are not written are not given here. Peptide text beside a SMILES is read from it.
Experiments:
[1] = molecular target: T1, hKv1.3 (Homo sapiens, UniProt P22001); format: cell-based; conditions: for inhibition of whole-cell current at block equilibrium: 200 pM toxin, hKv1.3
T1 construct: endogenous in cells
Method: The human venous blood from anonymized healthy donors was obtained from a blood bank. The peripheral blood mononuclear cells were isolated through Histopaque1077 (Sigma-Aldrich Hungary, Budapest, Hungary) density gradient centrifugation. Cells obtained were resuspended in RPMI 1640 medium containing 10% fetal calf serum (Sigma-Aldrich), 100 µg/ml penicillin, 100 µg/ml streptomycin, and 2 mM L glutamine, seeded in a 24-well culture plate at a density of 5 x 10^5 cells per ml, and grown in a 5% CO2 incubator at 37°C for 2–5 days. Phytohemagglutinin A (Sigma-Aldrich) was added in 5, 7, and 10 µg/ml concentrations to the medium to boost the potassium ion channel expression.
(§8) Electrophysiological measurements were performed by using the patch-clamp technique in whole-cell or outside-out patch configuration and voltage clamp mode using the Multiclamp 700B amplifier and Axon Digidata1440 digitizer (Molecular Devices, Sunnyvale, CA). Micropipettes were pulled from GC150F-15 borosilicate capillaries (Harvard Apparatus Kent, United Kingdom), resulting in 3–5 MΩ resistance in the bath solution. The extracellular solution contained 145 mM NaCl, 5 mM KCl, 1 mM MgCl2, 2.5 mM CaCl2, 5.5 mM glucose, and 10 mM HEPES, with a pH of 7.35 and an osmolarity between 302 and 308 mOsM/L. When the toxins were dissolved at different molar concentrations in bath solution, it was supplemented with 0.1 mg/ml of BSA. The pipette filling (intracellular) solution consisted of 140 mM KF, 2 mM MgCl2, 1 mM CaCl2, 10 mM HEPES, and 11 mM EGTA, with a pH of 7.22 and an osmolarity of 295 mOsM/L.
To record the hKv1.3 and hKv1.2 currents, 15- to 200-ms-long depolarization impulses were applied at +50 mV from a holding potential of −120 mV every 15 s. The pClamp 10.1 software package was used to acquire and analyze the measured data. Current traces were low-pass filtered by the analog four-pole Bessel filters of the amplifiers, and the sampling frequency was set at 20 kHz, at least twice that of the filter cutoff frequency. The effect of the toxin at a given molar concentration was calculated as the remaining current fraction (RCF = I/I0, where I0 is the peak current in the absence of the toxin and I is the peak current at equilibrium block at a given toxin concentration). The data points on dose–response curves represent the mean of 3–4 individual measurements. […]
Pharmacological activity of both versions of rMgTx was evaluated by studying their effect on the hKv1.2 and hKv1.3 ion channels. The hKv1.2 current was recorded in CHO cells, which heterologously expressed the hKv1.2 ion channel, and hKv1.3 current was recorded in the human peripheral blood lymphocytes. […]

[2] = molecular target: T2, hKv1.2 (Homo sapiens, UniProt P16389); assay: Patch-clamp block of hKv1.2 current (dose-response / equilibrium block) in transfected CHO cells; format: cell-based; conditions: for block of whole-cell current at equilibrium: 100 pM toxin, hKv1.2, CHO cells
T2 construct: GFP (from vector pCMV6-GFP); host or cells: CHO cells, transient transfection with Lipofectamine 2000
Method: as §8
Pharmacological activity of both versions of rMgTx was evaluated by studying their effect on the hKv1.2 and hKv1.3 ion channels. […] A custom-built perfusion system was used to apply toxins at a very small perfusion rate of 200 µl/min. […]

[3] = molecular target: T1, hKv1.3; assay: Binding and unbinding kinetics (wash-in/washout, patch-clamp) on hKv1.3; conditions: for koff: Kv1.3, calculated from averaged τ off; for koff / k on: 3-5 independent experiments; for k on: Kv1.3, calculated from averaged τ on and τ off, 200 pM toxin; for τ on: hKv1.3, 200 pM toxin, wash-in, single exponential; for τ on / τ off: n = 4, ± SEM; for τ off: hKv1.3, washout after 200 pM toxin
Method: (§1) Electrophysiological measurements were performed by using the patch-clamp technique in whole-cell or outside-out patch configuration and voltage clamp mode using the Multiclamp 700B amplifier and Axon Digidata1440 digitizer (Molecular Devices, Sunnyvale, CA). Micropipettes were pulled from GC150F-15 borosilicate capillaries (Harvard Apparatus Kent, United Kingdom), resulting in 3–5 MΩ resistance in the bath solution. The extracellular solution contained 145 mM NaCl, 5 mM KCl, 1 mM MgCl2, 2.5 mM CaCl2, 5.5 mM glucose, and 10 mM HEPES, with a pH of 7.35 and an osmolarity between 302 and 308 mOsM/L. When the toxins were dissolved at different molar concentrations in bath solution, it was supplemented with 0.1 mg/ml of BSA. The pipette filling (intracellular) solution consisted of 140 mM KF, 2 mM MgCl2, 1 mM CaCl2, 10 mM HEPES, and 11 mM EGTA, with a pH of 7.22 and an osmolarity of 295 mOsM/L.
(§2) To record the hKv1.3 and hKv1.2 currents, 15- to 200-ms-long depolarization impulses were applied at +50 mV from a holding potential of −120 mV every 15 s. The pClamp 10.1 software package was used to acquire and analyze the measured data. Current traces were low-pass filtered by the analog four-pole Bessel filters of the amplifiers, and the sampling frequency was set at 20 kHz, at least twice that of the filter cutoff frequency. The effect of the toxin at a given molar concentration was calculated as the remaining current fraction (RCF = I/I0, where I0 is the peak current in the absence of the toxin and I is the peak current at equilibrium block at a given toxin concentration). The data points on dose–response curves represent the mean of 3–4 individual measurements. The data points were fitted with a three-parameter [inhibition] vs response model, RCF = Bottom + [Top–Bottom)/(1+([toxin]/K d )], where Top and Bottom values were constrained to 1 and 0, respectively, and [toxin] is the concentration of the toxin. The best fit curve gave K d of the given toxin.
(§3) To examine the effect of additional residues of TrMgTx on binding to the ion channel, the association and dissociation rate constants of both the versions of the toxin were determined for the Kv1.3 channel of the activated human T lymphocytes and the hKv1.2 channel transiently expressed in the CHO cell. Whole-cell currents were recorded after applying the toxin (200 pM for Kv1.3 and 100 pM for Kv1.2) to the extracellular solution until the equilibrium block was achieved (wash-in), and then removed it by perfusing the toxin-free control solution (washout). Peak currents at a time point t [I(t)] were normalized to the peak current in the absence of the toxin [Inorm(t) = I(t)/I0], and these were plotted as a function of time. The association time constant (τ on ) was determined by fitting the data points during the wash-in procedure in the one-phase decay equation: Inorm(t)=((1−RCF)×e^−t/τon)+RCF , with the RCF = I/I0 at the equilibrium block as defined in the Electrophysiology section. The dissociation time constant (τ off ) was determined by fitting the following equation to the data points during the washout procedure: Inorm(t)=RCF+(1−e^−t/τoff).
(§4) The association rate constant (k on ) and dissociation rate constant (k off ) were calculated from the measured time constants, assuming a simple bimolecular interaction between the channel and toxin, and by using the following equations ([Peter et al., 2001]), with τon and τoff defined above, and [toxin] as the toxin concentration: kon=1−(τon×koff)/τon×[toxin], koff=1/τoff.

[4] = molecular target: T2, hKv1.2; assay: Binding and unbinding kinetics (wash-in/washout, patch-clamp) on hKv1.2; conditions: for k on: Kv1.2, calculated from averaged τ on and τ off, 100 pM toxin; for τ on: hKv1.2, 100 pM toxin, wash-in; for τ on / τ off: ± SEM; for recovery from block on washout: hKv1.2, toxin-free solution after 100 pM; for τ off: hKv1.2, washout after 100 pM toxin
Method: CHO cells were transiently transfected with the vector pCMV6-GFP (OriGene Technologies, Germany) encoding the human Kv1.2 ion channel using Lipofectamine 2000 (Invitrogen, Carlsbad, CA), following the manufacturer's protocol, and grown under the standard conditions as used previously ([Bagdány et al., 2005]). GFP-positive transfectants were identified with Nikon TE 2000U fluorescence microscope (Nikon, Tokyo, Japan), and currents were recorded after 24 h post transfection.
as §1, §2, §3, §4

[5] = system: IL2R (CD25) expression in CD4^+ TEM cells; assay: IL2R (CD25) expression in anti-CD3-stimulated CD4+ TEM lymphocytes (flow cytometry); format: cell-based, human; conditions: for inhibition of IL2R expression: 24 h anti-CD3 stimulation, three donors, technical duplicates, MFI normalized to stimulated; for effect on upregulation of IL2R expression: ∼100× K d (TrMgTx 8.5 nM, UrMgTx 5 nM), 24 h, anti-CD3
Description: (§5) The mononuclear cells were isolated from anonymized healthy donors as described earlier. Prior to CD4^+ TEM cells separation, dead cells were removed using the Dead Cell Removal Microbead Kit (Miltenyi Biotec B.V & CO. KG, Bergisch Gladbach, Germany). Untouched CD4^+ TEM lymphocytes were purified through magnetic cell sorting (negative selection) with the CD4^+ Effector Memory T Cell Isolation Kit (Miltenyi Biotec B.V. & Co. KG, Bergisch Gladbach, Germany) according to the manufacturer's protocol.
(§6) For TCR-specific stimulation, anti-human CD3 monoclonal antibodies (clone OKT3, BioLegend, San Diego, CA) were bound to the surface of 24-well cell culture plates at a density of 5 µg/well in phosphate-buffered saline (PBS) overnight at 4°C. Before seeding the cells, the wells were washed twice with PBS to remove the unbound antibodies. The CD4^+ TEM cells were divided into four groups: 1) unstimulated, 2) stimulated, 3) stimulated + TrMgTx (8.5 nM), and 4) stimulated + UrMgTx (5 nM). The cells were seeded at a density of 0.5×10^6 cells/ml per well, and when indicated, the cells were preincubated with the toxins for 5 min prior to the stimulation. The plate was incubated at 37°C in 5% CO2 for 24 h. Each experiment was performed in technical duplicates on three different donors.
(§7) For quantifying the extent of TEM cell stimulation, cells were washed with PBS buffer containing 1% of fetal bovine serum (FBS) and stained with fluorescein isothiocyanate (FITC)–labeled anti-human CD154 (CD40L) antibody (clones 24–31, BioLegend, San Diego, CA) and PerCP/Cyanine5.5–labeled anti-human CD25 (IL2R) antibody (clone BC96, BioLegend) at 4°C for 20 min. Cells were washed with the PBS + 1% FBS buffer and resuspended in 150 µl in PBS + 1% FBS. Samples were measured with NovoCyte 3000 RYB flow cytometer (ACEA Bioscience Inc.), FITC and PerCP/Cyanine5.5 were excited by using blue laser (488 nm), and 530/30 nm and 695/40 nm emission filters were used, respectively. Flow cytometry data were analyzed using FCS Express 6.0 (De Novo Software, Glendale, CA). Briefly, cells were gated on the basis of their FSC and SSC parameters, and then, the histograms corresponding to CD40L and CD25 were plotted as peak-normalized overlays. Mean fluorescent intensities (MFIs) were computed from the histograms and normalized to that of their stimulated (S) but not treated control. The negative (unlabeled) and unstimulated control (US) were always used for comparison.

[6] = system: CD40L expression in CD4^+ TEM cells; assay: CD40L (CD154) expression in anti-CD3-stimulated CD4+ TEM lymphocytes (flow cytometry); format: cell-based, human; conditions: for CD40L expression of stimulated, treated cells vs unstimulated cells: TrMgTx 8.5 nM or UrMgTx 5 nM; for CD40L expression of stimulated, treated cells vs unstimulated cells / effect on upregulation of CD40L expression: 24 h; for inhibition of CD40L expression: 24 h anti-CD3 stimulation, three donors, technical duplicates, MFI normalized to stimulated; for effect on upregulation of CD40L expression: ∼100× K d (TrMgTx 8.5 nM, UrMgTx 5 nM), anti-CD3
Description: as §5, §6, §7

[7] = molecular target: Kv1.3; conditions: cited from earlier work
Method: Voltage-gated potassium (Kv) channels are present in a variety of cells and tissues where they regulate multiple physiological processes, including cardiac function, neural excitability, muscle contraction, cell proliferation, cell volume control, and hormonal secretion ([Coetzee et al., 1999]; [Giangiacomo et al., 2004]). […] Previous studies report the production of recombinant MgTx (rMgTx) in E. coli and P. ... || Pharmacological activity of both versions of rMgTx was evaluated by studying their effect on the hKv1.2 and hKv1.3 ion channels. The hKv1.2 current was recorded in CHO cells, which heterologously expressed the hKv1.2 ion channel, and hKv1.3 current was recorded in the human peripheral blood lymphocytes. The stimulation of the hKv1.3 channel expression (activation of isolated mononuclear cells by PHA, see the Materials and Methods section) and recording conditions (no Ca^2+ in the pipette to elicit Ca^2+-activated K^+ channels) guaranteed that the current recorded in these cells is K^+ current ... || (+ 2 further places)

T1 sequence (P22001 whole entry): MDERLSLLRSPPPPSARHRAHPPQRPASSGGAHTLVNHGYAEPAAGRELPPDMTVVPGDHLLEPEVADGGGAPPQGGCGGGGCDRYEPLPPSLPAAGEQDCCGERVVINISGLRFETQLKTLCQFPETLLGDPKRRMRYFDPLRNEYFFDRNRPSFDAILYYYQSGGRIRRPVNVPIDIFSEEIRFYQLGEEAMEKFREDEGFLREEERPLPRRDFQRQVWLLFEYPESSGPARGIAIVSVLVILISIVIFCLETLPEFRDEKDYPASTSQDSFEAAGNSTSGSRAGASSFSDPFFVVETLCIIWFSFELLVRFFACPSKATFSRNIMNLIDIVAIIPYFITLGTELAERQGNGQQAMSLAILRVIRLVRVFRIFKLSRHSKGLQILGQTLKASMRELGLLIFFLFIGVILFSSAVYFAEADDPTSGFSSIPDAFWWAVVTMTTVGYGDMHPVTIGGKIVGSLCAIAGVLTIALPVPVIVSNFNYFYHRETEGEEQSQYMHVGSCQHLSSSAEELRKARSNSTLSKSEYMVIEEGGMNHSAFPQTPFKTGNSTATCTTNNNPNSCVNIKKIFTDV
T2 sequence (P16389 whole entry): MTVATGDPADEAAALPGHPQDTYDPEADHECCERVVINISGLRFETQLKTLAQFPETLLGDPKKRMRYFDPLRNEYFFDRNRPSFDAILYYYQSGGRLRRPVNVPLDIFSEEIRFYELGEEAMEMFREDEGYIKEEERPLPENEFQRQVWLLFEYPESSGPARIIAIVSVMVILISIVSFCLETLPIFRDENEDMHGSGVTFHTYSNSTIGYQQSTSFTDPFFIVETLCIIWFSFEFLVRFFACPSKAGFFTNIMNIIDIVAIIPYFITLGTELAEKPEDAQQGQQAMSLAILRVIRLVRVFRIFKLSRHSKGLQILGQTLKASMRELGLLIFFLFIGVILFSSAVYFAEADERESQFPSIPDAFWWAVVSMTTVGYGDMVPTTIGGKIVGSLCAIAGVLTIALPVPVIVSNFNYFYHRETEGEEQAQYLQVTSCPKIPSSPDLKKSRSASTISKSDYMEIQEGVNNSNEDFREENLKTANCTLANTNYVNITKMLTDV

## CC[C@H](C)[C@H](NC(=O)[C@@H](N)[C@@H](C)O)C(=O)N[C@H](C(=O)N[C@@H](CC(N)=O)C(=O)N[C@H](C(=O)N[C@@H](CCCCN)C(=O)N[C@H]1CSSC[C@@H]2NC(=O)[C@H](CCCCN)NC(=O)[C@H](C)NC(=O)CNC(=O)[C@H](C)NC(=O)[C@H](CO)NC(=O)[C@H](CCC(N)=O)NC(=O)CNC(=O)[C@H](Cc3ccccc3)NC(=O)[C@H](CCC(N)=O)NC(=O)[C@H](C)NC(=O)[C@H](CCCCN)NC(=O)[C@@H]3CSSC[C@@H](C(=O)N[C@@H](Cc4ccc(O)cc4)C(=O)N4CCC[C@H]4C(=O)N[C@@H](Cc4c[nH]cn4)C(=O)O)NC(=O)[C@H](CCCCN)NC(=O)[C@H](CSSC[C@H](NC(=O)[C@H](CCC(N)=O)NC(=O)[C@H](CCCCN)NC(=O)[C@@H]4CCCN4C(=O)[C@H](CO)NC(=O)[C@H]([C@@H](C)O)NC1=O)C(=O)N[C@@H](CC(C)C)C(=O)N1CCC[C@H]1C(=O)N1CCC[C@H]1C(=O)N3)NC(=O)[C@H](CCCCN)NC(=O)CNC(=O)[C@H](CC(N)=O)NC(=O)[C@H](CCSC)NC2=O)C(C)C)[C@@H](C)CC [UrMgTx] (H-TIINVKCTSPKQCLPPCKAQFGQSAGAKCMNGKCKCYPH-OH; disulfide 7-29, 13-34, 17-36; N-terminus and C-terminus assumed)
[1]
  inhibition of whole-cell current at block equilibrium: ~80%
[2]
  block of whole-cell current at equilibrium: ~90%
[3]
  koff: 0.00179 s⁻¹
  k on: 3.43e+07 M⁻¹ s⁻¹
  τ on: 116 ± 10 s
  τ off: 560 ± 28 s
[3]; hKv1.3, unpaired t test, n = 4, p < 0.001
  k on compared with TrMgTx: significantly higher
[4]; 3-5 independent experiments
  k on: 4.62e+07 M⁻¹ s⁻¹
[4]
  τ on: 191 ± 12 s
  recovery from block on washout: slow and partial recovery
  τ off: 1308 ± 351 s
[4]; hKv1.2, unpaired t test, n = 3-4, p < 0.001
  k off compared with TrMgTx: substantially lower
[4]; hKv1.2, unpaired t test, n = 3-4, p < 0.01
  k on compared with TrMgTx: slightly higher
[5]; UrMgTx 5 nM
  inhibition of IL2R expression: ~45%
[5]
  effect on upregulation of IL2R expression: significantly reduced
[6]
  CD40L expression of stimulated, treated cells vs unstimulated cells: comparable to that of unstimulated cells
  effect on upregulation of CD40L expression: significantly reduced
[6]; UrMgTx 5 nM
  inhibition of CD40L expression: ~45%

## CC[N+](CC)(CC)CC [tetraethylammonium, reference compound]
[1]
  reduction in peak current, positive control: Around 50%
[7]
  Kd: 10 mM

## charybdotoxin [reference compound]
[2]; 14 nM charybdotoxin, hKv1.2, data not shown
  reduction in peak current, positive control: Around 50%

## EFHHHHHHLQIEGRTIINVKCTSPKQCLPPCKAQFGQSAGAKCMNGKCKCYPH (disulfide 21-43, 27-48, 31-50) [TrMgTx]
[1]
  inhibition of whole-cell current at block equilibrium: ~70%
[1]; hKv1.3, dose-response
  potency relative to UrMgTx: slightly less potent
[2]
  block of whole-cell current at equilibrium: about 60%
[2]; hKv1.2, dose-response
  potency relative to UrMgTx: nearly fivefold less potent
[3]
  koff: 0.00179 s⁻¹
  k on: 2.14e+07 M⁻¹ s⁻¹
  τ on: 168 ± 19 s
  τ off: 568 ± 84 s
[3]; hKv1.3
  association rate, fold lower than UrMgTx: ~1.6 fold
[4]; Kv1.2, calculated from averaged τ off, 3-5 independent experiments
  koff: 0.0019 s⁻¹
[4]; 3-5 independent experiments
  k on: 3.05e+07 M⁻¹ s⁻¹
[4]; hKv1.2
  association rate, fold lower than UrMgTx: ~1.6 fold
[4]
  τ on: 202 ± 2.3 s
  recovery from block on washout: slow but full recovery
  τ off: 532 ± 69 s
[5]; TrMgTx 8.5 nM
  inhibition of IL2R expression: ~39%
[5]
  effect on upregulation of IL2R expression: significantly reduced
[6]
  CD40L expression of stimulated, treated cells vs unstimulated cells: comparable to that of unstimulated cells
  effect on upregulation of CD40L expression: significantly reduced
[6]; TrMgTx 8.5 nM
  inhibition of CD40L expression: ~36%
